Test system: HCT116 DICER^ex5 cells
Assay: Gene expression profiling (Agilent 44K microarray) after transfection of miR-192/miR-215 duplex mimetics
Format: cell-based, human
Conditions: 10 nM, vs mock-transfected
Method: Synthetic duplex mimetics of miR-192 and miR-215 (sequences shown in TABLE 1) or a control target Luciferase siRNA (Luc), shown in TABLE 1, were transfected (10 nM final concentration) into HCT116 DICER^ex5, a human colorectal cancer cell line with hypomorphic DICER function (Cummins, J. M., et al., PNAS 103:3687-3692 (2006)). The transfections were carried out using Lipofectamine RNAiMax (Invitrogen) per the manufacturer's instructions. At 10 and 24 hours post-transfection, total RNA was extracted and gene expression profiling was carried out with the Agilent 44K microarray in comparison to RNA isolated from mock-transfected HCT116DICER^ex5 cells. Microarray analysis was carried out as described in Linsley, P. S., et al., Mol Cell Biol 27:2240-2252 (2007). Gene expression data analysis was done either with the Rosetta Resolver gene expression analysis software (Version 7.1 Rosetta Biosoftware).

miR-215: Synthetic duplex mimetic of miR-215, guide AUGACCUAUGAAUUGACAGAC (SEQ ID NO:4), passenger SEQ ID NO:10 (sense CUGUCAAUUCAUAGGUCUUAU; listed as RNA, chemistry not given here; listed as Homo sapiens)
BCL2 transcript fold change (10 hr): −1.09 fold change
BRCA1 transcript fold change (10 hr): −1.04 fold change
CDC7 transcript fold change (10 hr): −1.54 fold change
CDC14A transcript fold change (10 hr): −1.05 fold change
CDC73 transcript fold change (10 hr): −1.04 fold change
CRK transcript fold change (10 hr): −1.43 fold change
CTCF transcript fold change (10 hr): −1.53 fold change
CUL5 transcript fold change (10 hr): −1.25 fold change
DBF4B transcript fold change (10 hr): −1.07 fold change
DEK transcript fold change (10 hr): −1.19 fold change
DLG5 transcript fold change (10 hr): −1.89 fold change
DTL transcript fold change (10 hr): −1.19 fold change
EMP1 transcript fold change (10 hr): 1.11 fold change
ERCC3 transcript fold change (10 hr): −1.25 fold change
EXTL2 transcript fold change (10 hr): −1.32 fold change
FGF2 transcript fold change (10 hr): −1.67 fold change
HOXA10 transcript fold change (10 hr): −1.74 fold change
HRH1 transcript fold change (10 hr): −1.52 fold change
KIF14 transcript fold change (10 hr): 1.01 fold change
KIF23 transcript fold change (10 hr): 1.01 fold change
LMNB2 transcript fold change (10 hr): −1.55 fold change
MACF1 transcript fold change (10 hr): −1.17 fold change
MAD2L transcript fold change (10 hr): −1.31 fold change
MCM3 transcript fold change (10 hr): −1.56 fold change
MCM6 transcript fold change (10 hr): −1.04 fold change
MCM10 transcript fold change (10 hr): −1.97 fold change
MIS12 transcript fold change (10 hr): −1.28 fold change
MKI67 transcript fold change (10 hr): −1.04 fold change
MPHOSPH1 transcript fold change (10 hr): −1.46 fold change
MTSS1 transcript fold change (10 hr): −1.07 fold change
NBN transcript fold change (10 hr): −1.39 fold change
NCAPH transcript fold change (10 hr): −1.02 fold change
NEK1 transcript fold change (10 hr): −1.16 fold change
NFIB transcript fold change (10 hr): −1.38 fold change
NFYA transcript fold change (10 hr): −1.25 fold change
NIN transcript fold change (10 hr): −1.12 fold change
PAFAH1B1 transcript fold change (10 hr): −1.31 fold change
PAPD5 transcript fold change (10 hr): −1.31 fold change
PFTK1 transcript fold change (10 hr): 1.05 fold change
PIM1 transcript fold change (10 hr): −1.13 fold change
PLAU transcript fold change (10 hr): −1.77 fold change
PLS3 transcript fold change (10 hr): −1.56 fold change
POLQ transcript fold change (10 hr): −1.1 fold change
POLS transcript fold change (10 hr): −1.17 fold change
PPP1CA transcript fold change (10 hr): −1.76 fold change
PRPF38A transcript fold change (10 hr): −1.09 fold change
RACGAP1 transcript fold change (10 hr): −1.31 fold change
RAD1 transcript fold change (10 hr): −1.12 fold change
RAD21 transcript fold change (10 hr): −1.32 fold change
RAD51 transcript fold change (10 hr): 1.05 fold change
RAP1GAP transcript fold change (10 hr): −1.21 fold change
RB1 transcript fold change (10 hr): −1.25 fold change
SEPT10 transcript fold change (10 hr): −1.6 fold change
SERTAD2 transcript fold change (10 hr): −1.09 fold change
SH3BP4 transcript fold change (10 hr): −1.38 fold change
SMARCB1 transcript fold change (10 hr): −1.42 fold change
TDG transcript fold change (10 hr): −1.54 fold change
TDP1 transcript fold change (10 hr): −1.5 fold change
TOP1 transcript fold change (10 hr): −1.64 fold change
TUBGCP3 transcript fold change (10 hr): −1.41 fold change
USP1 transcript fold change (10 hr): −1.16 fold change
UVRAG transcript fold change (10 hr): −1.17 fold change
BCL2 transcript fold change (24 hr): −1.59 fold change
BRCA1 transcript fold change (24 hr): −1.43 fold change
CDC7 transcript fold change (24 hr): −2.04 fold change
CDC14A transcript fold change (24 hr): −1.2 fold change
CDC73 transcript fold change (24 hr): −1.1 fold change
CRK transcript fold change (24 hr): −1.52 fold change
CTCF transcript fold change (24 hr): −1.66 fold change
CUL5 transcript fold change (24 hr): −1.37 fold change
DBF4B transcript fold change (24 hr): −1.33 fold change
DEK transcript fold change (24 hr): −1.42 fold change
DLG5 transcript fold change (24 hr): −2.03 fold change
DTL transcript fold change (24 hr): −1.46 fold change
EMP1 transcript fold change (24 hr): 1.04 fold change
ERCC3 transcript fold change (24 hr): −1.36 fold change
EXTL2 transcript fold change (24 hr): −1.59 fold change
FGF2 transcript fold change (24 hr): −2.12 fold change
HOXA10 transcript fold change (24 hr): −2.57 fold change
HRH1 transcript fold change (24 hr): −1.63 fold change
KIF14 transcript fold change (24 hr): −1.53 fold change
KIF23 transcript fold change (24 hr): −1.36 fold change
LMNB2 transcript fold change (24 hr): −1.92 fold change
MACF1 transcript fold change (24 hr): −1.55 fold change
MAD2L transcript fold change (24 hr): −1.84 fold change
MCM3 transcript fold change (24 hr): −1.96 fold change
MCM6 transcript fold change (24 hr): −1.4 fold change
MCM10 transcript fold change (24 hr): −2.67 fold change
MIS12 transcript fold change (24 hr): −1.77 fold change
MKI67 transcript fold change (24 hr): −1.52 fold change
MPHOSPH1 transcript fold change (24 hr): −1.94 fold change
MTSS1 transcript fold change (24 hr): −1.29 fold change
NBN transcript fold change (24 hr): −1.41 fold change
NCAPH transcript fold change (24 hr): −1.32 fold change
NEK1 transcript fold change (24 hr): −1.35 fold change
NFIB transcript fold change (24 hr): −1.91 fold change
NFYA transcript fold change (24 hr): −1.18 fold change
NIN transcript fold change (24 hr): −1.42 fold change
PAFAH1B1 transcript fold change (24 hr): −1.6 fold change
PAPD5 transcript fold change (24 hr): −1.22 fold change
PFTK1 transcript fold change (24 hr): −1.28 fold change
PIM1 transcript fold change (24 hr): −1.65 fold change
PLAU transcript fold change (24 hr): −1.91 fold change
PLS3 transcript fold change (24 hr): −1.84 fold change
POLQ transcript fold change (24 hr): −1.23 fold change
POLS transcript fold change (24 hr): −1.38 fold change
PPP1CA transcript fold change (24 hr): −2.42 fold change
PRPF38A transcript fold change (24 hr): −1.17 fold change
RACGAP1 transcript fold change (24 hr): −1.84 fold change
RAD1 transcript fold change (24 hr): −1.38 fold change
RAD21 transcript fold change (24 hr): −1.52 fold change
RAD51 transcript fold change (24 hr): −1.35 fold change
RAP1GAP transcript fold change (24 hr): −1.35 fold change
RB1 transcript fold change (24 hr): −1.39 fold change
SEPT10 transcript fold change (24 hr): −1.95 fold change
SERTAD2 transcript fold change (24 hr): −1.1 fold change
SH3BP4 transcript fold change (24 hr): −1.67 fold change
SMARCB1 transcript fold change (24 hr): −1.42 fold change
TDG transcript fold change (24 hr): −1.55 fold change
TDP1 transcript fold change (24 hr): −1.8 fold change
TOP1 transcript fold change (24 hr): −1.76 fold change
TUBGCP3 transcript fold change (24 hr): −1.73 fold change
USP1 transcript fold change (24 hr): −1.38 fold change
UVRAG transcript fold change (24 hr): −1.43 fold change

Source: patent US20110118337A1, “Method of Using Compositions Comprising MIR-192 and/or MIR-215 for the Treatment of Cancer” (Merck Sharp & Dohme Corp., priority 2008, published 2011)
